Laboratory results reported in patent US9199927B2, “Guanidinobenzoic acid compound” (Astellas Pharma Inc., priority 2011, dated 2015).
Where a name gives a salt, the structure may show the parent alone.

What was measured:
ICR mice = test: Increasing study of fecal protein concentration in mice; format: in vivo; conditions: Mus musculus, 5 mg/kg oral, feces collected 3 to 9 hours after, control = 1, read-out: protein increasing activity in feces, fold vs control
Description: 2. Increasing Study of Fecal Protein Concentration in Mice
For the experiment, 6-weeks old ICR mice (male) were used, and the experiment was carried out in five per group. After fasting the mice for 15 hours, the control group was forcibly orally administered with a 0.5% methyl cellulose (MC) solution, and the test drug group was forcibly orally administered (5 mg/kg) with a solution or suspension obtained by dissolving or suspending the compound in the 0.5% MC solution. The fasting was stopped immediately thereafter, free feeding (CE-2) started and then the feces were collected from after 3 hours to after 9 hours. All of the obtained feces were dissolved and suspended in 6 mL of distilled water, and centrifuged for 10 minutes at 3000 rpm. The protein concentration in the supernatant was measured by a Bradford method, and the amount of the protein in 1 g of feces was calculated by dividing the protein concentration in the feces by the total weight of feces. Further, the efficacy was investigated from the ratio to the control. For the compounds that were evaluated multiple times, the average values were calculated.
For some representative compounds, the protein increasing activities in feces are shown in Table 2, assuming a value for the control as 1. Ex in the table represents the Example No. as denoted below of the test compound.

[1] = biological target: mouse trypsin (m-trypsin); test: Inhibitory activity of trypsin enzyme (mouse trypsin purified from small intestine contents, BZiPAR fluorescent substrate); format: biochemical; conditions: mouse trypsin diluted 1/50, BZiPAR substrate, 30 minutes at room temperature
Source text: (§1) 1. Inhibitory Activity of Trypsin Enzyme in Humans and Mice
(§2) In the experiment, human recombinant trypsin (r-h trypsin; manufactured by WAKO, cat. #206-17171) and mouse trypsin (m-trypsin; purified from the mouse small intestine contents by the present Company) were used.
The method to extract the trypsin from the mouse small intestine is shown below.
The small intestine contents and the gastrointestinal tract of 10 mice were suspended in PBS using Polytron and subjected to centrifugation at 15,000×g several times. The supernatant was mixed at 4° C. for 16 hours with a Benzamidine Sepharose 4 Fast Flow Resin (GE Healthcare: #17-5123-10). After washing the resin with PBS, m-trypsin was eluted with a glycine elution buffer (pH 3.0).
(§3) The outline of the measurement method is shown below.
(§4) The compound was dissolved in dimethyl sulfoxide (DMSO), and diluted to an arbitrary concentration (A). A was 100-fold diluted with a buffer (0.1 M Tris (pH 8.0), 0.15 M NaCl, 10 mM CaCl2, 0.05% Brij38) (B). The r-h trypsin was diluted with a buffer to 0.088 μg/mL, and the m-trypsin was diluted with a buffer to 1/50 (C). […] The substrate solution of a substrate for the enzyme reaction, BZiPAR, (Rhodamine Reference Substrate) was diluted with a buffer to 5 μmol/L (D). B; 5 μL, C; 5 μL, and D; 10 μL were added to a 384-plate, and incubated at room temperature for 30 minutes. The fluorescent signals were detected with Ex/Em=497/520 using Tecan Safire Fluorometer. […] Based on the obtained inhibitory rates, IC50 values (nM) were calculated from the non-linear regression. The test was carried out in the same manner, using camostat as a control compound.
(§5) Ex in the table represents the Example No. as denoted below.

[2] = biological target: human recombinant trypsin (r-h trypsin) (Homo sapiens (Human), UniProt P07477); test: Inhibitory activity of trypsin enzyme (human recombinant trypsin, BZiPAR fluorescent substrate); format: biochemical; conditions: human recombinant trypsin 0.088 μg/mL, 30 minutes at room temperature
Description: as §1, §2, §3, §4, §5

Row | SMILES | melting point [°C] | IC50 [1] [nM] | IC50 [2] [nM] | response vs control in vivo at 5 mg/kg (ICR mice) [%]
1 | N=C(N)Nc1ccc(C(=O)Oc2ccc3nc(C(=O)N(CC(=O)O)Cc4cccc(C(=O)O)c4)ccc3c2)cc1 [Example 4, 3-{[({6-[(4-carbamimidamidobenzoyl)oxy]quinolin-2-yl}carbonyl)(carboxymethyl)amino]methyl}benzoic acid] | 255 |  |  | 
2 | N=C(N)Nc1ccc(C(=O)Oc2ccc(CCC(=O)N(CC(=O)O)Cc3cc(C(=O)O)cc(C(=O)O)c3)c(Cl)c2)cc1 [Example 64] |  | 0.7 | 0.37 | 198
3 | CC(C)(Oc1ccc(C[C@H](NC(=O)Cc2ccc(OC(=O)c3ccc(NC(=N)N)cc3)cc2Cl)C(=O)O)cc1)C(=O)O [Example 95] |  | 0.64 | 0.66 | 188
4 | N=C(N)Nc1ccc(C(=O)Oc2ccc(CC(=O)N[C@@H](Cc3ccc(OCC(=O)O)cc3)C(=O)O)c(Cl)c2)cc1 [Example 56] |  | 0.64 | 0.88 | 202
5 | CC(C(=O)N(CC(=O)O)Cc1cccc(C(=O)O)c1)c1ccc(OC(=O)c2ccc(NC(=N)N)cc2)cc1Cl (stereo not drawn) [Example 5, 3-{[(2-{4-[(4-carbamimidamidobenzoyl)oxy]-2-chlorophenyl}propanoyl)(carboxymethyl)amino]methyl}benzoic acid] | 208 |  |  | 
6 | N=C(N)Nc1ccc(C(=O)Oc2ccc(CC(=O)N[C@@H](Cc3ccc(C(=O)O)cc3)C(=O)O)c(Cl)c2)cc1 [Example 13] |  | 0.84 | 0.91 | 185

Now from value to compound, other results behind:

Row | melting point [°C] | IC50 [1] [nM] | IC50 [2] [nM] | SMILES | response vs control in vivo at 5 mg/kg (ICR mice) [%]
7 | 197 |  |  | N=C(N)Nc1ccc(C(=O)Oc2ccc(CCC(=O)N(CC(=O)O)Cc3cccc(C(=O)O)c3)c(Cl)c2)cc1 (as salt: mesylate) [Example 3, 3-{[(3-{4-[(4-carbamimidamidobenzoyl)oxy]-2-chlorophenyl}propanoyl)(carboxymethyl)amino]methyl}benzoic acid mesylate] | 
8 |  | 0.35 | 0.45 | N=C(N)Nc1ccc(C(=O)Oc2ccc(CCC(=O)N(CC(=O)O)Cc3ccccc3C(=O)O)c(Cl)c2)cc1 [Example 53] | 179
9 |  | 0.66 | 0.57 | N=C(N)Nc1ccc(C(=O)Oc2ccc(CCC(=O)N(CCC(=O)O)Cc3cccc(C(=O)O)c3)c(Cl)c2)cc1 [Example 45] | 165
10 |  | 0.39 | 0.3 | N=C(N)Nc1ccc(C(=O)Oc2ccc(CCC(=O)NCc3ccccc3C(=O)O)c(Cl)c2)cc1 [Example 52] | 182
